Data reported in ChEMBL document CHEMBL1201862, “PubChem BioAssay data set” (2004).
Active and inactive are the calls of the source.

Columns and labels:
[1] = target: T1, E3 ubiquitin-protein ligase XIAP (Homo sapiens, UniProt P98170); experiment: Counter Screen using XIAP-Bir3 for Chemical Antagonists of Bir1/2 domains of IAP-family anti-apoptotic proteins. [Related pubchem assays (depositor defined):AID1018, AID1449, AID1514, AID1638, AID1749, AID1750, AID488957, AID488963]
[2] = target: T1, E3 ubiquitin-protein ligase XIAP; experiment: small molecules displacing peptide from XIAP – biochemical, IAP family, fluorescence polarization (AID 1018); format: functional
Integrin alpha-4 = Integrin alpha-4 (Homo sapiens, UniProt P13612); experiment: allosteric modulators of alpha4 integrin VLA-4 – cell-based, LIBS antibody binding, flow cytometry, SAR follow-up (AID 488791); format: functional
Sequence of Integrin alpha-4 (P13612 whole entry): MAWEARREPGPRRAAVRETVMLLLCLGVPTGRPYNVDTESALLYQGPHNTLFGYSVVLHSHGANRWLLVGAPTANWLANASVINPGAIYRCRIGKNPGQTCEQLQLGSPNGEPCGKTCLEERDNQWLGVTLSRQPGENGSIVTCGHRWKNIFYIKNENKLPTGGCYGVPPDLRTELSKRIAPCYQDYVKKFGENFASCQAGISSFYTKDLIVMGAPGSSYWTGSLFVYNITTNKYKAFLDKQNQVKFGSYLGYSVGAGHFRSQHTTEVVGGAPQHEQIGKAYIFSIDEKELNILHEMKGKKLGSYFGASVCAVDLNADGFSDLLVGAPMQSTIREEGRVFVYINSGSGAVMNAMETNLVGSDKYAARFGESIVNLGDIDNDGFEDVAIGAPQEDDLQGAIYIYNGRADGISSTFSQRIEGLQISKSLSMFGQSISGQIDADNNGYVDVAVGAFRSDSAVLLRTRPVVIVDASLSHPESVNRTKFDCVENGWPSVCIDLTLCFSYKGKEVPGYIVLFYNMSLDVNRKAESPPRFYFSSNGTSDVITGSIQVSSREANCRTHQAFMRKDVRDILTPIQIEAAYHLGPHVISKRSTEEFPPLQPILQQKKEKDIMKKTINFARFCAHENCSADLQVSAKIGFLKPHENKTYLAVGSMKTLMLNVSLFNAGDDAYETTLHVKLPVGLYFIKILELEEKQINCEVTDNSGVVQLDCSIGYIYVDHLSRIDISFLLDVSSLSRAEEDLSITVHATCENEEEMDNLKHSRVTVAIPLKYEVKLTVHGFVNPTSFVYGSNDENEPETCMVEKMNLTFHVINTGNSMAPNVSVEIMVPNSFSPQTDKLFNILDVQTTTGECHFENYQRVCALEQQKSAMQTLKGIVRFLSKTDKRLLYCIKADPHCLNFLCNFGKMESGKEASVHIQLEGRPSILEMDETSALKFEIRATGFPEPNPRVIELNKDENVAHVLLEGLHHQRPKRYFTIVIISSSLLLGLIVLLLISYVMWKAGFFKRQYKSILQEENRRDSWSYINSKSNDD

[3] = target: T2, Microphthalmia-associated transcription factor (Homo sapiens, UniProt O75030); experiment: reducers of TRPM1 reporter luminescence, concentration series – cell-based, SK-MEL-5, cherry-picked, set 3, MITF inhibitor project, dose response (AID 493073); format: functional;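 also: SK-MEL-5 melanoma cells with luciferase driven by the MITF target TRPM1 promoter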
T2 sequence (O75030 whole entry): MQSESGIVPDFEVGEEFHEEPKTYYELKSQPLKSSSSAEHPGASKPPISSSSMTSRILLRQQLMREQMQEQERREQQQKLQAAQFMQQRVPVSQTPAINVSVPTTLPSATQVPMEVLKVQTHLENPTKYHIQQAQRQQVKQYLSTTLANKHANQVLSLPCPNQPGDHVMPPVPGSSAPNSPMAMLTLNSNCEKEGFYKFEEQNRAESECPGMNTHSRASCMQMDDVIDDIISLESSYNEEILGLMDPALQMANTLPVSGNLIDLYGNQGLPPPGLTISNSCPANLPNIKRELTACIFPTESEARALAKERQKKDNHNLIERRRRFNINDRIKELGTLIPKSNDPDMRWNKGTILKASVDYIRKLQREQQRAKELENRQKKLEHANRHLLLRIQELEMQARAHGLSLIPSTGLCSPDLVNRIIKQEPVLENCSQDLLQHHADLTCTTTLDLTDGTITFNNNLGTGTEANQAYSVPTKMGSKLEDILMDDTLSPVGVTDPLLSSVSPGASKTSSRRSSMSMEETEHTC

A-375 [4] = experiment: MITF: Counter assay: A375 proliferation Measured in Cell-Based System Using Plate Reader - 2084-03_Inhibitor_Dose_DryPowder_Activity. [Related pubchem assays (depositor defined):AID488944]; format: functional; conditions: Homo sapiens
Vero = experiment: cells; format: functional; conditions: Chlorocebus sabaeus
A-375 [5] = experiment: proliferation inhibition in MITF-low A375 cells – cell-based, cherry-pick samples, set 2, counter-screen for MITF modulator project, dose response (AID 540335); format: functional; conditions: Homo sapiens
[6] = luciferase reporter signal suppression in cells – H4 neuroglioma cells, luminescence, dose response (AID 1990); format: functional, cell-based
[7] = Luminescence Cell-Based Dose Response HTS to Identify Inhibitors of 5'UTR Stem-Loop Driven Prion Protein mRNA Translation in H4 Neuroglioblastoma Cells. [Related pubchem assays: 1827 (Project Summary), 1813 (Primary HTS)]; format: functional
[8] = alpha-synuclein stem-loop luciferase translation blockers – H4 neuroglioma cells, luminescence, confirmation (AID 1988); format: functional, cell-based
Hexokinase HKDC1 = target: T3, Hexokinase HKDC1 (Homo sapiens, UniProt Q2TB90); experiment: activation of HKDC1 glucose phosphorylation – biochemical, W721R variant, dose response (AID 504730); format: functional
T3 sequence (Q2TB90 whole entry): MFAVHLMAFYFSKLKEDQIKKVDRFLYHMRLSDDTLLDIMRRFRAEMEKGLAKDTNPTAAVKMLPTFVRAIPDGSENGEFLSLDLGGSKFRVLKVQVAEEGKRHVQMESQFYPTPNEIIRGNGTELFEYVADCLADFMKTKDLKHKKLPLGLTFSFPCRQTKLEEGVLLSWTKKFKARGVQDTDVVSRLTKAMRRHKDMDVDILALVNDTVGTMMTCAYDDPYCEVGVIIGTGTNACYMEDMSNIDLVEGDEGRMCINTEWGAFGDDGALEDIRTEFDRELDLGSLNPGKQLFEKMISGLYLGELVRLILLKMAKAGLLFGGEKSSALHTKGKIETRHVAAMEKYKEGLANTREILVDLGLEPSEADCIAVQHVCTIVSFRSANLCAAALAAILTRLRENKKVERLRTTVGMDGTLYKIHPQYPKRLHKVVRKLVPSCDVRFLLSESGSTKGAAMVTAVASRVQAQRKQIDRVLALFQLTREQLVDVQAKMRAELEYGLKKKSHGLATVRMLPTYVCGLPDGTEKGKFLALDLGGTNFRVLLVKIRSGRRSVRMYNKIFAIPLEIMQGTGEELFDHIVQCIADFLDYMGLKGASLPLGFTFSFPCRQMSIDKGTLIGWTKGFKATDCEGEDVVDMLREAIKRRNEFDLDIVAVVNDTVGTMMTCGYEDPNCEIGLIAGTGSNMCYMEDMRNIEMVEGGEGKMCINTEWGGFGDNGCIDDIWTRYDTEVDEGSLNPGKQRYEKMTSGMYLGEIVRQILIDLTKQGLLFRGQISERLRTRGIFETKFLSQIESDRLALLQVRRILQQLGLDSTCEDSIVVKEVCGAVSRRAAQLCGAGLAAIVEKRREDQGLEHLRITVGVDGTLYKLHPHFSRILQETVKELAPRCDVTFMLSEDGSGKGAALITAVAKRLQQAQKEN

Hexokinase-1 = target: T4, Hexokinase-1 (Homo sapiens, UniProt P19367); experiment: HK1 enzyme activation by HKDC1 hits – biochemical, selectivity assay for HKDC1 activator project, dose response (AID 504762); format: functional
T4 sequence (P19367 whole entry): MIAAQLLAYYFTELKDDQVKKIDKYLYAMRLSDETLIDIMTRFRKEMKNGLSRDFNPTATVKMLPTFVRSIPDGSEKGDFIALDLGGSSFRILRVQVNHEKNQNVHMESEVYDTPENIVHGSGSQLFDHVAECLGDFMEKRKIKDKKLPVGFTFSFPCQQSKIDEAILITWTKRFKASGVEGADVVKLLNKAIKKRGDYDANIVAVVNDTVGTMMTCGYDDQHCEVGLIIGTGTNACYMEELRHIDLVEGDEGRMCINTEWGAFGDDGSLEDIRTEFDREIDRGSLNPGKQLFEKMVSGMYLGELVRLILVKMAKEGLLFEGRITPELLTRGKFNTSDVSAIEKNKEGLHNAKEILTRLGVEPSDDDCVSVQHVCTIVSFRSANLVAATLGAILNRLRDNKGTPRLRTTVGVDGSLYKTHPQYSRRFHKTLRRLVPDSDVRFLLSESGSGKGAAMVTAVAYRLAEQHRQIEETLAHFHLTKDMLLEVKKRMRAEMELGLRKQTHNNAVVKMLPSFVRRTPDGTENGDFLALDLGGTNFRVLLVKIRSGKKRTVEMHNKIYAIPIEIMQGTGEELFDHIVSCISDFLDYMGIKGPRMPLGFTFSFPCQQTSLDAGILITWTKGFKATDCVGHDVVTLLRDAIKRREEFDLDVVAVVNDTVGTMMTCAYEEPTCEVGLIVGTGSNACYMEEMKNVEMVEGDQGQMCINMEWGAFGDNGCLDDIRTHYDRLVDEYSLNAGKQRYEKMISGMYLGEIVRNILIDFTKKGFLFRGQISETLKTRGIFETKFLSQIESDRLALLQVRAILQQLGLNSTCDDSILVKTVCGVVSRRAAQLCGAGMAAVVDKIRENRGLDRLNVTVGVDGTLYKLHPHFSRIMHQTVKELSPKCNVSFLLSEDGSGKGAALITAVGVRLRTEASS

[9] = Luminescence Cell-Based Dose Retest to Confirm Inhibitors of Cancer Stem Cells. [Related pubchem assays (depositor defined):AID2717, AID2721]; format: functional; conditions: Homo sapiens
[10] = Intein inhibitors as potential Tuberculosis drugs, a cytotoxicity screen. [Related pubchem assays (depositor defined):AID2221, AID2223, AID434968, AID435010, AID449749, AID449750, AID489010]; format: functional
[11] = target: T5, Replicative DNA helicase DnaB (Mycobacterium tuberculosis, UniProt P9WMR3); experiment: DnaB intein splicing inhibitors, dose response, biochemical, cell-free fluorescence (AID 449749); format: functional
T5 sequence (P9WMR3 whole entry): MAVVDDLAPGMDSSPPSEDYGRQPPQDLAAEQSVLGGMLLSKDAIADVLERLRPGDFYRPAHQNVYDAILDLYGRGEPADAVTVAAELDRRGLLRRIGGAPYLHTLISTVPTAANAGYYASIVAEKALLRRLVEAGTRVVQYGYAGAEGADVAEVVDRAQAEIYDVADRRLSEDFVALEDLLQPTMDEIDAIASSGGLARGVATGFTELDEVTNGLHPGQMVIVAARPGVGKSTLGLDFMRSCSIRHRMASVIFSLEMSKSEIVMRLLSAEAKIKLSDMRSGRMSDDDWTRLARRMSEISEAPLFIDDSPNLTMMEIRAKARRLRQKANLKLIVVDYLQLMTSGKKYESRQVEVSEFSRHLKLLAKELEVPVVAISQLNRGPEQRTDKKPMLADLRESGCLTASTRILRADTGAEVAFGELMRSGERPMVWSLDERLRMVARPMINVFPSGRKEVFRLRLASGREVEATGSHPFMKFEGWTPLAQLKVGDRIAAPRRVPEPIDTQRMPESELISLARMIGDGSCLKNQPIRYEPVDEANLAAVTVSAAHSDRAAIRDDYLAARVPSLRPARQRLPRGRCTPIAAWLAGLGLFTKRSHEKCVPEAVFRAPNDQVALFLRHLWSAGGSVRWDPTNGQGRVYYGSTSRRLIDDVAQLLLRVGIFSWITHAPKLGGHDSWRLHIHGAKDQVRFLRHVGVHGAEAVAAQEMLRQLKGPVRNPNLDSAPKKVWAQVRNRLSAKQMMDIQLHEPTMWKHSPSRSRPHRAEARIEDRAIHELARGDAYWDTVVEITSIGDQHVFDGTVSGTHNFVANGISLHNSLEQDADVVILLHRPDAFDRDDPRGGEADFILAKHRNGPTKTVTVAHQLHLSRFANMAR

Protein RecA = target: T6, Protein RecA (Mycobacterium tuberculosis, UniProt P9WHJ3); experiment: Fluorescence Cell-Free Homogeneous Dose Retest to Identify Inhibitors of RecA-Intein Splicing Activity. [Related pubchem assays (depositor defined):AID2097, AID2223, AID489010, AID492950]; format: functional
T6 sequence (P9WHJ3 whole entry): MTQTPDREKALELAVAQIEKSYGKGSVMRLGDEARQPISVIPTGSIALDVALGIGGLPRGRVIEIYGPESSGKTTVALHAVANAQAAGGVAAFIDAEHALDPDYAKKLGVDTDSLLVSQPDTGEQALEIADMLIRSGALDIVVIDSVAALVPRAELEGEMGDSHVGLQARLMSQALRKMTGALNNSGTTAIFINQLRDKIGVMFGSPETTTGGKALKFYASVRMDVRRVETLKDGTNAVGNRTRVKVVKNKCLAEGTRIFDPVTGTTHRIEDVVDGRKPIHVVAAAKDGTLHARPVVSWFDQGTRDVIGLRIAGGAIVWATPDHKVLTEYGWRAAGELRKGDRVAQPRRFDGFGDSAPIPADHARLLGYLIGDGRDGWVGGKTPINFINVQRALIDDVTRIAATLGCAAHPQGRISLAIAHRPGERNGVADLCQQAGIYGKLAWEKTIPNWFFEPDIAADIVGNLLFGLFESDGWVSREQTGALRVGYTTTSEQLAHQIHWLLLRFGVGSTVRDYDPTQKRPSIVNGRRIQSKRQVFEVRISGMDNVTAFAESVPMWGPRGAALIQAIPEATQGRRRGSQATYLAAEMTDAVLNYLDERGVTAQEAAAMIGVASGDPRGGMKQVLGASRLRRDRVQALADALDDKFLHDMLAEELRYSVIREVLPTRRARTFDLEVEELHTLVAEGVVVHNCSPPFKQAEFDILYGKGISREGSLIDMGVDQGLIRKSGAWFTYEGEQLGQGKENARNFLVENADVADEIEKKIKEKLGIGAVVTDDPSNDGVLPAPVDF

Cytochrome P450 2D6 = Cytochrome P450 2D6 (Homo sapiens, UniProt P10635);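 also: CYP2D6 member of a cytochrome P450 panel assay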
Sequence of Cytochrome P450 2D6 (P10635 whole entry): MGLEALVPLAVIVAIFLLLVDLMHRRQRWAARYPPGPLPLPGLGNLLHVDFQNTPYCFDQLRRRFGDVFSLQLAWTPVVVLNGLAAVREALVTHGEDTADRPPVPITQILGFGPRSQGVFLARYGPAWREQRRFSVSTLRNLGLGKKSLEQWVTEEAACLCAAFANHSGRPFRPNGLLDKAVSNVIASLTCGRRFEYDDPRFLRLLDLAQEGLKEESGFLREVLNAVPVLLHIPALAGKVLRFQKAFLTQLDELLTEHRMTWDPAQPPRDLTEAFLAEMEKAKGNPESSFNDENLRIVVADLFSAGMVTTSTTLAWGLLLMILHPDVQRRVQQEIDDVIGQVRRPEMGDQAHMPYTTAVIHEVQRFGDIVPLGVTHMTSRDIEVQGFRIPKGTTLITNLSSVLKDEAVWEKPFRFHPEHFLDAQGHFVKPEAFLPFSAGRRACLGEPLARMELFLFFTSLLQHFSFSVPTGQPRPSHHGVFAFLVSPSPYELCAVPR

Mu-type opioid receptor = Mu-type opioid receptor (Homo sapiens, UniProt P35372); experiment: SAR Analysis of Antagonists of the MOR Receptor using an Image-Based Assay - Set 3. [Related pubchem assays (depositor defined):AID1777, AID1785, AID1786, AID1966, AID2133, AID2136, AID2284, AID2285, AID2420]; format: functional
Sequence of Mu-type opioid receptor (P35372 whole entry): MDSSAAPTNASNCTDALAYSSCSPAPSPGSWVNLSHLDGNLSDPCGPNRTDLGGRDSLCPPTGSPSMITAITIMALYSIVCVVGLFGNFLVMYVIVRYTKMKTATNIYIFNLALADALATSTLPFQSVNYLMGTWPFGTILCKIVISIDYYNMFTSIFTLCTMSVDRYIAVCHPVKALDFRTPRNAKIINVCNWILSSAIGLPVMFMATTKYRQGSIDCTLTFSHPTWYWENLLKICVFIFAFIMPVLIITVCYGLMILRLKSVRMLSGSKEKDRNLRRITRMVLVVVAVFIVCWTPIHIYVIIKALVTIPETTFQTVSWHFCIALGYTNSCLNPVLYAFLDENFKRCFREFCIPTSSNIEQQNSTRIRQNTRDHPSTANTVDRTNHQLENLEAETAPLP

[12] = target: Delta-type opioid receptor (Homo sapiens, UniProt P41143); experiment: SAR Analysis of Antagonists of the DOR Receptor using an Image-Based Assay - Set 3. [Related pubchem assays (depositor defined):AID1777, AID1785]; format: functional;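 also: U2OS cells expressing DOR1 and beta-arrestin GFP stimulated with 100 nM SNC80; imaging of GFP-tagged beta-arrestin moving into spots after receptor activation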
Sequence of Delta-type opioid receptor (P41143 whole entry): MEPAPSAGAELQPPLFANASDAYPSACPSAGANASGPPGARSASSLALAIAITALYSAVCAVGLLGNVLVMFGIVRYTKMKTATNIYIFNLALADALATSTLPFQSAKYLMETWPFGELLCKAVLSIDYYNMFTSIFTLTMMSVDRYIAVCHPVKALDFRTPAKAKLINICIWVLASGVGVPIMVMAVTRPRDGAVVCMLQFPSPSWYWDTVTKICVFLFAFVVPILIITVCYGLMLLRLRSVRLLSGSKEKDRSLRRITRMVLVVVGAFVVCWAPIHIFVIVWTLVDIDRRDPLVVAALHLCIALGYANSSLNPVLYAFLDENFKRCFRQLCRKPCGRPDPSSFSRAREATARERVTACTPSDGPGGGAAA

[13] = target: T7, Kappa-type opioid receptor (Homo sapiens, UniProt P41145); experiment: SAR analysis of small molecule antagonists of the kappa opioid receptor via a luminescent beta-arrestin assay - Set 3. [Related pubchem assays (depositor defined):AID1777, AID1778, AID1785, AID1786, AID1966, AID2133, AID2136, AID2285, AID2495]; format: functional
T7 sequence (P41145 whole entry): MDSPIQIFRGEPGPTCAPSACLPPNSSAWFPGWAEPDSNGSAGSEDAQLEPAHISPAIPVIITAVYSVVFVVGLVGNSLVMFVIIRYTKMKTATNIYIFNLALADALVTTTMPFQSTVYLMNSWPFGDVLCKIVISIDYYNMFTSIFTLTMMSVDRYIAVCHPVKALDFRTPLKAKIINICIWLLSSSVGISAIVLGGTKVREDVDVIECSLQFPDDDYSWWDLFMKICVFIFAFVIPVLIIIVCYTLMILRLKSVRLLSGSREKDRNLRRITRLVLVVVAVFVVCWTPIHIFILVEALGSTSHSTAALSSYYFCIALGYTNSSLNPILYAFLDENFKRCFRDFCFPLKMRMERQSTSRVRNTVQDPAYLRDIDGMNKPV

[14] = target: T7, Kappa-type opioid receptor; experiment: SAR analysis of Antagonists of the Kappa Opioid Receptor (KOR) using an Image-Based Assay - Set 3. [Related pubchem assays (depositor defined):AID1777, AID1785]; format: functional

T1 sequence (P98170 whole entry): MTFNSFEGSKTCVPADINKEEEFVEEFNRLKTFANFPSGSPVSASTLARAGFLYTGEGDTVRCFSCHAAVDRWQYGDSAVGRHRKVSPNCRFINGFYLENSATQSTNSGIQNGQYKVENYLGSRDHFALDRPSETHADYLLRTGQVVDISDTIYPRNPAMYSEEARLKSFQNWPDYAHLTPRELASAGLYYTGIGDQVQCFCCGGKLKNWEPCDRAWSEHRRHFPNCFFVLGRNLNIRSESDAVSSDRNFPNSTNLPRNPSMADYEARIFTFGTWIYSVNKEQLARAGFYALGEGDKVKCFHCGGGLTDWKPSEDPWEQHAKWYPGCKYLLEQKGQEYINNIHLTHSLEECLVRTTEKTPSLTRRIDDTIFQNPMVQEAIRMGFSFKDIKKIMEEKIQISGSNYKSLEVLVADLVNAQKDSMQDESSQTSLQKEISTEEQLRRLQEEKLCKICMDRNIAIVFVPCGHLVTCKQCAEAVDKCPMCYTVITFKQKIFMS

Compound: CCOC(=O)C1(CCCc2ccccc2)CCN(C(=O)C2=C(C)OCCO2)CC1
- IC50 [1]: > 100 µM (inactive)
- IC50 [2]: > 100 µM (not active)

Compound: CCOCCCNC(=O)/C(C#N)=C/c1ccc(Cl)c([N+](=O)[O-])c1
- EC50 (Integrin alpha-4): > 90.8 µM (inactive)
- AC50 [3]: 7.38 µM (active)
- AC50 (A-375 [4]): > 35 µM (active)
- CC50 (Vero): > 25 µM (active)
- AC50 (A-375 [5]): > 35 µM (active)

Compound: COc1cc(OC)cc(C(=O)NC(=S)NNC(=O)c2cnccn2)c1
- EC50 [6]: > 120 µM (not active)
- EC50 [7]: 11.5 µM (active)
- EC50 [8]: 10.2 µM (active)
- EC50 (Hexokinase HKDC1): 11.5 µM (active)
- EC50 (Hexokinase-1): > 80 µM (inactive)

Compound: CC(C)CCn1c(N)c(C(=O)NCc2cccs2)c2nc3ccccc3nc21
- AC50 [9]: 3.46 µM (active)
- CC50 [10]: > 40 µM (active)
- AC50 [11]: 4.01 µM (active)
- EC50 (Protein RecA): 3.04 µM (active)
- AC50 (Cytochrome P450 2D6): 8.91 µM (inconclusive)

Compound: CCc1ccc(S(=O)(=O)NCc2ccc(C(=O)NCCN(Cc3ccccc3)C(C)CC)cc2)cc1 (stereo unspecified)
- IC50 (Mu-type opioid receptor): > 32 µM (inactive)
- IC50 [12]: > 32 µM (inactive)
- IC50 [13]: 1.42 µM (active)
- IC50 [14]: 0.47 µM (active)
